In paper PMC10387993, “New pyrimidine-N-β-D-glucosides: synthesis, biological evaluation, and molecular docking investigations” (Turkish Journal of Chemistry, 2023):
Converted amounts (≈) assume the structure as drawn. Read-outs that look alike come from different tables or passages of the source. One block for each compound: values may come before it.

How the values were obtained:
Assay type in all cases: cell-based
[1] = LDH cytotoxic activity assay, C6; conditions: rat, C6 glioma cells; for cytotoxicity at 24 h, 25 μg/mL: C6, 25 μg/mL; for cytotoxicity at 24 h, 50 μg/mL: C6, 50 μg/mL; for cytotoxicity at 24 h, 75 μg/mL: C6, 75 μg/mL; for cytotoxicity at 24 h, 100 μg/mL: C6, 100 μg/mL
Procedure: (§1) The cell lines were cultured in a cell medium (Dulbecco’s modified eagle’s or RPMI 1640) enriched with 10% (v/v) fetal bovine serum and 2% (v/v) Penicillin-Streptomycin (10,000 U/mL). First, old medium was removed out of the flask when the cells reached approximately 80% confluence. Next, cells were taken from the flasks surface using trypsin-EDTA solution and then subjected to centrifugation. Following, the cell pellet was suspended with fresh media and was inoculated into wells.
(§2) Approximately 5 × 10^3 cells in 100 μL were placed into 96-well plates as triplicates and treated with 25, 50, 75, and 100 μg/mL concentrations of test compounds at 37 °C with 5% CO2 for 24 h. LDH activity was obtained by determining absorbance at 492–630 nm using a microplate reader.

[2] = LDH cytotoxic activity assay, HT29; conditions: human, HT29 cells; for cytotoxicity at 24 h, 25 μg/mL: HT29, 25 μg/mL; for cytotoxicity at 24 h, 50 μg/mL: HT29, 50 μg/mL; for cytotoxicity at 24 h, 75 μg/mL: HT29, 75 μg/mL; for cytotoxicity at 24 h, 100 μg/mL: HT29, 100 μg/mL
Procedure: as §1, §2

[3] = system: E. coli ATCC 25922; experiment: Microdilution MIC assay; conditions: Escherichia coli, ATCC25922; E. coli ATCC 25922, 24 h at 35 °C
Procedure: (§3) MIC values of the compounds against bacterial strains were determined on the basis of a microwell dilution method. […] […]. Growth of microorganisms was determined visually after incubation for 24 h at 35 °C. The lowest concentration at which there was no visible growth (turbidity) was taken as the MIC.

[4] = system: E. coli ESBL ATCC 35218; experiment: Microdilution MIC assay; conditions: Escherichia coli, ATCC35218; E. coli ESBL ATCC 35218, 24 h at 35 °C
Procedure: as §3

[5] = system: P. aeruginosa AGME ATCC 27853; experiment: Microdilution MIC assay; conditions: Pseudomonas aeruginosa, ATCC27853; P. aeruginosa AGME ATCC 27853, 24 h at 35 °C
Procedure: as §3

[6] = system: S. aureus MSSA ATCC 29213; experiment: Microdilution MIC assay; conditions: S. aureus MSSA ATCC 29213, 24 h at 35 °C
Procedure: as §3

[7] = system: S. aureus MRSA ATCC 46300; experiment: Microdilution MIC assay; conditions: Staphylococcus aureus; S. aureus MRSA ATCC 46300, 24 h at 35 °C; read-out: MIC
Procedure: as §3

[8] = system: S. mutans ATCC 35668; experiment: Microdilution MIC assay; conditions: S. mutans ATCC 35668, 24 h at 35 °C
Procedure: as §3

[9] = system: HT29; experiment: cells; conditions: Homo sapiens; for LC50 (concentration giving 50% net cell loss relative to time zero): HT-29, read-out: LC50; for GI50 / IC50 / IC (total growth inhibition): HT-29, HT29, MTT; for IC50: read-out: IC50; for IC (total growth inhibition): read-out: TGI
Procedure: as §1
(§4) A cell suspension containing approximately 1 × 10^4 cells in 100 μL was seeded into the wells of 96-well culture plates. […]. The final volume of the wells was set to 200 μL by medium. Cell proliferation assay was evaluated by MTT (yellow tetrazolium MTT (3-(4,5-dimethylthiazolyl-2)-2,5-diphenyltetrazolium bromide) methods. Briefly, an MTT stock solution (5 mg of MTT/mL of distilled water) was filtered and kept at −20 °C until use. The cells were exposed to an MTT reagent (consisting of one parts of MTT stock solutions and nine parts of fresh RPMI 1640 without phenol red) for 4 h to form MTT formazan dye followed by the dye dissolved in DMSO with Sorenson’s buffer for 30 min at room temperature and then the plate was measured at 560 nm, with 690 nm as a reference interval, using a microplate reader. Each experiment was repeated at least three times for each cell line.
(§5) IC50 value is a concentration that inhibits half of the cells in vitro. The half maximal inhibitory concentration (IC50) of the test and control compounds was calculated using XLfit5 or excel spreadsheet and represent in μM at 95% confidence intervals. The proliferation assay results were expressed as the percent inhibition according to the following formula: % Inhibition = [1 - (Absorbance of Treatments /Absorbance of DMSO) × 100]. Three dose response parameters (GI50, TGI, LC50) were calculated according to the following formulas using the absorbance measurements of time zero (Tz), control growth (C), and test growth in the presence of drug (Ti). Growth inhibition of 50% (GI50) was calculated from [(Ti-Tz)/(C-Tz)] × 100 = 50, which is the drug concentration resulting in a 50% reduction in the net growth increase in control cells during the drug incubation. The drug concentration resulting in total growth inhibition (TGI) was calculated from Ti = Tz. The LC50 indicating a net loss of cells following treatment was calculated from [(Ti-Tz)/Tz] × 100 = −50.

[10] = system: Hep3B; experiment: cells; conditions: Homo sapiens; for GI50 / IC50 / IC (total growth inhibition): MTT; for IC50: read-out: IC50; for IC (total growth inhibition): read-out: TGI; for LC50 (concentration causing 50% net cell loss relative to time zero): read-out: LC50
Procedure: as §1, §4, §5

[11] = system: C6 (Rat brain glioma); experiment: cells; conditions: Rattus norvegicus; for LC50 (concentration giving 50% net cell loss relative to time zero): read-out: LC50; for GI50 / IC50 / IC (total growth inhibition): C6, MTT; for IC50: read-out: IC50; for IC (total growth inhibition): read-out: TGI
Procedure: as §1, §4, §5

[12] = system: MCF7; experiment: cells; conditions: Homo sapiens; for LC50 (concentration causing 50% net cell loss relative to time zero): MCF7, read-out: LC50; for GI50 / IC50 / IC (total growth inhibition): MCF7, MTT; for IC50: read-out: IC50; for IC (total growth inhibition): read-out: TGI
Procedure: as §1, §4, §5

[13] = system: A549; experiment: cells; conditions: Homo sapiens; for LC50 (concentration causing 50% net cell loss): A549, read-out: LC50; for GI50 / IC50 / IC (total growth inhibition): A549, MTT; for IC50: read-out: IC50; for IC (total growth inhibition): read-out: TGI
Procedure: as §1, §4, §5

[14] = system: HeLa; experiment: cells; conditions: Homo sapiens; for GI50 / IC50 / IC (total growth inhibition): MTT; for IC50: read-out: IC50; for IC (total growth inhibition): read-out: TGI; for LC50 (concentration causing 50% net cell loss): read-out: LC50
Procedure: as §1, §4, §5

[15] = LDH cytotoxic activity assay, HeLa; conditions: human, HeLa cells
Procedure: as §1, §2

[16] = system: normal FL cells; experiment: cells; conditions: FL normal cells, MTT; for IC50: read-out: IC50; for IC (total growth inhibition): read-out: TGI
Procedure: as §1, §4, §5

[17] = in vitro; conditions: human, LC50
Procedure: as §1, §4, §5

[18] = Staphylococcus aureus, 24 h, read-out: MIC
[19] = Streptococcus mutans, ATCC35668, 24 h, read-out: MIC

MIC [3]: > 1000 µg/mL
MIC [4]: > 1000 µg/mL
MIC [5]: > 1000 µg/mL
MIC [6]: 125 µg/mL (≈ 211 µM)
MIC [6, 18]: 62.5 to 125 µg/mL (≈ 105 to 211 µM)
MIC [7]: 250 µg/mL (≈ 422 µM)
MIC [8]: 62.5 µg/mL (≈ 105 µM)
MIC [8, 19]: 62.5 to 125 µg/mL (≈ 105 to 211 µM)
GI50 [9]: 2.28 µg/mL (≈ 3.85 µM)
IC50 [9]: > 500 µg/mL
GI50 [10]: 4.9 µg/mL (≈ 8.27 µM)
IC50 [10]: > 500 µg/mL
GI50 [11]: > 500 µg/mL
IC50 [11]: > 500 µg/mL
GI50 [12]: 1.95 µg/mL (≈ 3.29 µM)
IC50 [12]: > 500 µg/mL
GI50 [13]: 430 µg/mL (≈ 726 µM)
IC50 [13]: > 500 µg/mL
GI50 [14]: > 500 µg/mL
IC50 [14]: > 500 µg/mL
SMILES: CC(=O)OC[C@H]1O[C@@H](Nc2nc(-c3cccnc3)cc(-c3cccc(C)c3)n2)[C@H](OC(C)=O)[C@@H](OC(C)=O)[C@@H]1OC(C)=O [Compound 14, 2,3,4,6-tetra-O-acetyl-N-[4-(3-methylphenyl)-6-pyridin-3-ylpyrimidin-2-yl]-β-D-glucopyranosylamine]
cytotoxicity at 24 h, 25 μg/mL [1]: 18.4%
cytotoxicity at 24 h, 50 μg/mL [1]: 35.3%
cytotoxicity at 24 h, 75 μg/mL [1]: 70.2%
cytotoxicity at 24 h, 100 μg/mL [1]: 86.7%
cytotoxicity at 24 h, 25 μg/mL [2]: 21%
cytotoxicity at 24 h, 50 μg/mL [2]: 44.6%
cytotoxicity at 24 h, 75 μg/mL [2]: 61.8%
cytotoxicity at 24 h, 100 μg/mL [2]: 72.2%
LC50 (concentration giving 50% net cell loss relative to time zero) [9]: > 500 µg/mL
IC (total growth inhibition) [9]: > 500 µg/mL
IC (total growth inhibition) [10]: > 500 µg/mL
LC50 (concentration causing 50% net cell loss relative to time zero) [10]: > 500 µg/mL
LC50 (concentration giving 50% net cell loss relative to time zero) [11]: > 500 µg/mL
IC (total growth inhibition) [11]: > 500 µg/mL
LC50 (concentration causing 50% net cell loss relative to time zero) [12]: > 500 µg/mL
IC (total growth inhibition) [12]: > 500 µg/mL
LC50 (concentration causing 50% net cell loss) [13]: > 500 µg/mL
IC (total growth inhibition) [13]: > 500 µg/mL
IC (total growth inhibition) [14]: > 500 µg/mL
LC50 (concentration causing 50% net cell loss) [14]: > 500 µg/mL
cytotoxicity at 24 h, 25 μg/mL [15]: 16.6%
cytotoxicity at 24 h, 50 μg/mL [15]: 28.8%
cytotoxicity at 24 h, 75 μg/mL [15]: 33.5%
cytotoxicity at 24 h, 100 μg/mL [15]: 48.8%
GI50 [16]: 118 µg/mL (≈ 199 µM)
IC50 [16]: > 500 µg/mL
IC (total growth inhibition) [16]: > 500 µg/mL
LC50 (concentration causing 50% net cell loss) [17]: > 500 µg/mL

MIC [3]: > 1000 µg/mL
MIC [4]: > 1000 µg/mL
MIC [5]: > 1000 µg/mL
MIC [6]: 125 µg/mL (≈ 294 µM)
MIC [6, 18]: 62.5 to 125 µg/mL (≈ 147 to 294 µM)
MIC [7]: 250 µg/mL (≈ 589 µM)
MIC [8, 19]: 500 µg/mL (≈ 1180 µM)
GI50 [9]: 4.29 µg/mL (≈ 10.1 µM)
IC50 [9]: > 500 µg/mL
GI50 [10]: 4.07 µg/mL (≈ 9.59 µM)
IC50 [10]: > 500 µg/mL
GI50 [11]: > 500 µg/mL
IC50 [11]: > 500 µg/mL
GI50 [12]: 2.29 µg/mL (≈ 5.4 µM)
IC50 [12]: > 500 µg/mL
GI50 [13]: 192 µg/mL (≈ 453 µM)
IC50 [13]: > 500 µg/mL
GI50 [14]: > 500 µg/mL
IC50 [14]: > 500 µg/mL
SMILES: Cc1cccc(-c2cc(-c3ccncc3)nc(N[C@@H]3O[C@H](CO)[C@@H](O)[C@H](O)[C@H]3O)n2)c1 [Compound 6, N-[4-(3-methylphenyl)-6-pyridin-4-ylpyrimidin-2-yl]-β-D-glucopyranosylamine]
cytotoxicity at 24 h, 25 μg/mL [1]: 27.9%
cytotoxicity at 24 h, 50 μg/mL [1]: 38.2%
cytotoxicity at 24 h, 75 μg/mL [1]: 63.1%
cytotoxicity at 24 h, 100 μg/mL [1]: 84.9%
cytotoxicity at 24 h, 25 μg/mL [2]: 24.8%
cytotoxicity at 24 h, 50 μg/mL [2]: 34.5%
cytotoxicity at 24 h, 75 μg/mL [2]: 68.9%
cytotoxicity at 24 h, 100 μg/mL [2]: 85.6%
LC50 (concentration giving 50% net cell loss relative to time zero) [9]: > 500 µg/mL
IC (total growth inhibition) [9]: > 500 µg/mL
IC (total growth inhibition) [10]: > 500 µg/mL
LC50 (concentration causing 50% net cell loss relative to time zero) [10]: > 500 µg/mL
LC50 (concentration giving 50% net cell loss relative to time zero) [11]: > 500 µg/mL
IC (total growth inhibition) [11]: > 500 µg/mL
LC50 (concentration causing 50% net cell loss relative to time zero) [12]: > 500 µg/mL
IC (total growth inhibition) [12]: > 500 µg/mL
LC50 (concentration causing 50% net cell loss) [13]: > 500 µg/mL
IC (total growth inhibition) [13]: > 500 µg/mL
IC (total growth inhibition) [14]: > 500 µg/mL
LC50 (concentration causing 50% net cell loss) [14]: > 500 µg/mL
cytotoxicity at 24 h, 25 μg/mL [15]: 14.3%
cytotoxicity at 24 h, 50 μg/mL [15]: 29.2%
cytotoxicity at 24 h, 75 μg/mL [15]: 44.5%
cytotoxicity at 24 h, 100 μg/mL [15]: 47.8%
GI50 [16]: 8.04 µg/mL (≈ 18.9 µM)
IC50 [16]: > 500 µg/mL
IC (total growth inhibition) [16]: > 500 µg/mL
LC50 (concentration causing 50% net cell loss) [17]: > 500 µg/mL
